Assay: refractive index (other wavelength) (dimensionless); xn = mol fraction of the nth substance listed
Conditions: 101 kPa, Liquid, Standard Abbe refractometry

CC(C)OC(C)C [diisopropyl ether] + CC(C)O
refractive index
Conditions | Wavelength=404.7 nm | Wavelength=435.8 nm | Wavelength=486.1 nm | Wavelength=546.1 nm | Wavelength=587.6 nm | Wavelength=589.3 nm | Wavelength=632.8 nm | Wavelength=644 nm | Wavelength=706.5 nm
298.15 K, x1 = 0.0277 | – | – | – | – | – | 1.37492 | 1.3736 | 1.37329 | 1.37183
298.15 K, x1 = 0.0507 | – | – | – | – | – | 1.37483 | 1.37352 | 1.37322 | 1.37174
298.15 K, x1 = 0.051 | – | – | – | – | – | 1.37489 | 1.37358 | 1.37327 | 1.37179
298.15 K, x1 = 0.0717 | – | – | – | – | – | 1.37462 | 1.37331 | 1.373 | 1.37152
298.15 K, x1 = 0.1528 | – | – | – | – | – | 1.37401 | 1.3727 | 1.3724 | 1.37093
298.15 K, x1 = 0.1553 | – | – | – | – | – | 1.37401 | 1.3727 | 1.3724 | 1.37093
298.15 K, x1 = 0.1938 | – | – | – | – | – | 1.37373 | 1.37243 | 1.37213 | 1.37068
298.15 K, x1 = 0.2029 | – | – | – | – | – | 1.37346 | 1.37215 | 1.37185 | 1.37039
298.15 K, x1 = 0.245 | – | – | – | – | – | 1.37306 | 1.37177 | 1.37147 | 1.37002
298.15 K, x1 = 0.297 | – | – | – | – | – | 1.37259 | 1.3713 | 1.371 | 1.36955
298.15 K, x1 = 0.2973 | – | – | – | – | – | 1.37284 | 1.37156 | 1.37126 | 1.3698
298.15 K, x1 = 0.3068 | – | – | – | – | – | 1.37238 | 1.37108 | 1.37078 | 1.36933
298.15 K, x1 = 0.398 | – | – | – | – | – | 1.37122 | 1.36993 | 1.36964 | 1.36819
298.15 K, x1 = 0.4609 | – | – | – | – | – | 1.37063 | 1.36933 | 1.36903 | 1.36758
298.15 K, x1 = 0.5434 | – | – | – | – | 1.36987 | 1.36981 | 1.36853 | 1.36823 | 1.36678
298.15 K, x1 = 0.6032 | – | – | – | – | 1.3693 | 1.36925 | 1.36797 | 1.36767 | 1.36623
298.15 K, x1 = 0.6371 | – | – | – | – | 1.36894 | 1.36889 | 1.36762 | 1.36731 | 1.36587
298.15 K, x1 = 0.701 | – | – | – | – | 1.36828 | 1.36823 | 1.36695 | 1.36666 | 1.36523
298.15 K, x1 = 0.754 | – | – | – | – | 1.36792 | 1.36786 | 1.36659 | 1.36629 | 1.36485
298.15 K, x1 = 0.791 | – | – | – | – | 1.36756 | 1.3675 | 1.36623 | 1.36593 | 1.3645
298.15 K, x1 = 0.8296 | – | – | – | – | 1.36723 | 1.36717 | 1.36589 | 1.36559 | 1.36417
298.15 K, x1 = 0.8864 | – | – | – | – | 1.367 | 1.36695 | 1.36567 | 1.36537 | 1.36394
298.15 K, x1 = 0.8903 | – | – | – | – | 1.36659 | 1.36653 | 1.36526 | 1.36497 | 1.36354
298.15 K, x1 = 0.9113 | – | – | – | – | 1.3667 | 1.36631 | 1.36504 | 1.36475 | 1.36332
298.15 K, x1 = 0.9547 | – | – | – | – | 1.36596 | 1.36587 | 1.36459 | 1.3643 | 1.36289
298.15 K, x1 = 0.973 | – | – | – | – | 1.3656 | 1.36557 | 1.3643 | 1.364 | 1.36258
298.15 K, x1 = 0.9771 | – | – | – | – | 1.36557 | 1.36551 | 1.36423 | 1.36393 | 1.36281
298.15 K, x1 = 1 | – | – | – | – | 1.36535 | 1.3653 | 1.36402 | 1.36373 | 1.36237
303.15 K, x1 = 0.0277 | 1.38362 | 1.3806 | 1.37718 | 1.37435 | 1.37285 | 1.37279 | 1.37149 | 1.37119 | 1.36973
303.15 K, x1 = 0.0507 | 1.38359 | 1.38056 | 1.37714 | 1.3743 | 1.3728 | 1.37274 | 1.37145 | 1.37115 | 1.36969
303.15 K, x1 = 0.051 | 1.38351 | 1.38049 | 1.37707 | 1.37423 | 1.37273 | 1.37268 | 1.37138 | 1.37107 | 1.36962
303.15 K, x1 = 0.0717 | 1.38322 | 1.3802 | 1.37678 | 1.37395 | 1.37244 | 1.37238 | 1.37109 | 1.37079 | 1.36934
303.15 K, x1 = 0.1528 | 1.38258 | 1.37956 | 1.37614 | 1.37331 | 1.37181 | 1.37176 | 1.37047 | 1.37018 | 1.36872
303.15 K, x1 = 0.1553 | 1.38258 | 1.37956 | 1.37614 | 1.37331 | 1.37181 | 1.37176 | 1.37047 | 1.37018 | 1.36872
303.15 K, x1 = 0.1938 | 1.38229 | 1.37926 | 1.37584 | 1.37303 | 1.37153 | 1.37147 | 1.37018 | 1.36988 | 1.36843
303.15 K, x1 = 0.2029 | 1.38193 | 1.37892 | 1.37549 | 1.37266 | 1.37116 | 1.37111 | 1.36981 | 1.36952 | 1.36807
303.15 K, x1 = 0.245 | 1.38148 | 1.37846 | 1.37506 | 1.37223 | 1.37075 | 1.37069 | 1.36941 | 1.36911 | 1.36767
303.15 K, x1 = 0.297 | 1.38091 | 1.37798 | 1.37446 | 1.37163 | 1.37013 | 1.37008 | 1.3688 | 1.3685 | 1.36705
303.15 K, x1 = 0.2973 | 1.38111 | 1.37809 | 1.37467 | 1.37184 | 1.37036 | 1.37031 | 1.36902 | 1.36872 | 1.36727
303.15 K, x1 = 0.3068 | 1.38076 | 1.37775 | 1.37433 | 1.37149 | 1.37001 | 1.36996 | 1.36867 | 1.36837 | 1.36692
303.15 K, x1 = 0.398 | 1.37951 | 1.3765 | 1.37309 | 1.37025 | 1.36877 | 1.36872 | 1.36744 | 1.36715 | 1.3657
303.15 K, x1 = 0.4609 | 1.37885 | 1.37585 | 1.37245 | 1.3696 | 1.36818 | 1.36807 | 1.3668 | 1.3665 | 1.36501
303.15 K, x1 = 0.5434 | 1.37802 | 1.37503 | 1.37161 | 1.36879 | 1.36731 | 1.36726 | 1.36598 | 1.36567 | 1.36425
303.15 K, x1 = 0.6032 | 1.37738 | 1.3744 | 1.37096 | 1.36815 | 1.36667 | 1.36661 | 1.36533 | 1.36504 | 1.36362
303.15 K, x1 = 0.6371 | 1.37701 | 1.37401 | 1.37059 | 1.36779 | 1.36631 | 1.36626 | 1.36497 | 1.36466 | 1.36326
303.15 K, x1 = 0.701 | 1.37631 | 1.37333 | 1.36992 | 1.36711 | 1.36564 | 1.36559 | 1.36431 | 1.36401 | 1.36259
303.15 K, x1 = 0.754 | 1.37593 | 1.37295 | 1.36954 | 1.36673 | 1.36525 | 1.36519 | 1.36391 | 1.36362 | 1.36221
303.15 K, x1 = 0.791 | 1.37553 | 1.37254 | 1.36913 | 1.36633 | 1.36485 | 1.3648 | 1.36352 | 1.36323 | 1.36182
303.15 K, x1 = 0.8296 | 1.37518 | 1.37221 | 1.3688 | 1.36599 | 1.36453 | 1.36447 | 1.3632 | 1.3629 | 1.36148
303.15 K, x1 = 0.8864 | 1.37495 | 1.37197 | 1.36856 | 1.36576 | 1.3643 | 1.36424 | 1.36297 | 1.36267 | 1.36126
303.15 K, x1 = 0.8903 | 1.37451 | 1.37154 | 1.36813 | 1.36533 | 1.36386 | 1.36381 | 1.36254 | 1.36225 | 1.36083
303.15 K, x1 = 0.9113 | 1.37428 | 1.37131 | 1.36791 | 1.36511 | 1.36365 | 1.3636 | 1.36233 | 1.36203 | 1.36061
303.15 K, x1 = 0.9547 | 1.37382 | 1.37084 | 1.36747 | 1.36465 | 1.36319 | 1.36314 | 1.36187 | 1.36157 | 1.36016
303.15 K, x1 = 0.973 | 1.37347 | 1.3705 | 1.36711 | 1.3643 | 1.36285 | 1.36279 | 1.36153 | 1.36123 | 1.35983
303.15 K, x1 = 0.9771 | 1.37338 | 1.3704 | 1.36702 | 1.36421 | 1.36275 | 1.3627 | 1.36145 | 1.36115 | 1.35972
303.15 K, x1 = 1 | 1.37321 | 1.37022 | 1.36687 | 1.36406 | 1.3626 | 1.36255 | 1.3613 | 1.361 | 1.3596

Source: the NIST ThermoML archive (doi:10.1016/j.fluid.2014.09.014)
